Results as given in patent US20220363662A1, “COMPOUNDS AS LXR AGONISTS” (Integral Biosciences Privated Limited, priority 2021, published 2022).

What was measured:
MCF7 = test: Cell viability assay (resazurin) in MCF7; assay type: cell-based; conditions: Homo sapiens, 96 hr exposure
Description: HepG2 (ATCC® HB-8065™), hepatocellular carcinoma, A549 (ATCC® CCL-185™), lung epithelial carcinoma, MCF7 (ATCC® HTB-22™), mammary gland epithelial carcinoma, MDA-MB-231 (ATCC® HTB-26™), TNBC, MiaPaCa-2 (ATCC® CRL-1420™) & Panc-1 (ATCC® CRL-1469™), pancreatic epithelial carcinoma, HCT116 (ATCC® CCL-247™), colon epithelial carcinoma and U87MG (ATCC® HTB-14™), brain epithelial carcinoma cell lines respectively were seeded in the respective medium (DMEM, Cat #10569044 with 10% FBS, Cat #16000044; Gibco for HepG2, A549, MCF7, MDA-MB-231, MiaPaCa-2, Panc-1, HCT116 and MEM, Cat #11095080 with 10% FBS for U87MG). Cells were allowed to grow at 37° C. for 24 hr in 5% CO2 (culture conditions) in a Nuaire incubator (humidified). Serially diluted compounds (100 μl) were added to the culture plate 24 hr later and the cultures were further incubated in culture conditions for 96 hr. Experiment was terminated at the completion of 96 hr exposure to the drug by replacing the medium with 100 μl of 1 mM of resazurin (R7017; Sigma) prepared in culture medium and the plates were further incubated in culture conditions for 4 hr. Fluorescence was then measured using a multimodal plate reader (Biotek Synergy Neo) at an excitation wavelength of 535 nm and emission wavelength of 590 nm to obtain relative fluorescence units. Data analysis was done by subtracting the background fluorescence (only medium blank) value from each reading and then normalizing with the vehicle control (DMSO treated cells) to obtain percent survival/proliferation. Percent survival at different doses was used to calculate IC50 by fitting the curve to the “four-parameter variable slope logistic model” using Prism Graph Pad.

LXR beta = target: T1, LXR beta (Homo sapiens, UniProt P55055); test: LXR beta agonist assay (Lanthascreen TR-FRET); assay type: biochemical; conditions: LXR beta-LBD 5 nM, read-out: LXR-β EC50
T1 construct: 5 μL of 4×LXR beta-LBD was added to each well (final concentration 5 nM); purchased Thermofisher PV4658
T1 sequence (P55055 222-460 limits assumed): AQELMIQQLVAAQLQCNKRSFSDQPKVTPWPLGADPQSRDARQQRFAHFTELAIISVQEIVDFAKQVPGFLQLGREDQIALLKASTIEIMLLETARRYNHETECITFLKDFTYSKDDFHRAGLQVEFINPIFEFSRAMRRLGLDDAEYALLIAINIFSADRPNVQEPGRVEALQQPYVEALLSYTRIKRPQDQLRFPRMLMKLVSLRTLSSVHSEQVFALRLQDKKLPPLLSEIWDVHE
Outline: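 TR-FRET coactivator recruitment: 5 nM LXR beta-LBD with 100 nM Fl-D22 peptide and 10 nM Tb-anti-GST antibody (final) in Coregulator Buffer G, 60 min at 22° C, read hourly up to 4 hours. Duplicate three-fold titrations from 30 μM; EC50 by variable-slope nonlinear regression.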

MiaPaCa-2 = test: Cell viability assay (resazurin) in MiaPaCa-2; assay type: cell-based; conditions: Homo sapiens, MIA PaCa-2; 96 hr exposure
Description: (§1) HepG2 (ATCC® HB-8065™), hepatocellular carcinoma, A549 (ATCC® CCL-185™), lung epithelial carcinoma, MCF7 (ATCC® HTB-22™), mammary gland epithelial carcinoma, MDA-MB-231 (ATCC® HTB-26™), TNBC, MiaPaCa-2 (ATCC® CRL-1420™) & Panc-1 (ATCC® CRL-1469™), pancreatic epithelial carcinoma, HCT116 (ATCC® CCL-247™), colon epithelial carcinoma and U87MG (ATCC® HTB-14™), brain epithelial carcinoma cell lines respectively were seeded in the respective medium (DMEM, Cat #10569044 with 10% FBS, Cat #16000044; Gibco for HepG2, A549, MCF7, MDA-MB-231, MiaPaCa-2, Panc-1, HCT116 and MEM, Cat #11095080 with 10% FBS for U87MG). Cells were allowed to grow at 37° C. for 24 hr in 5% CO2 (culture conditions) in a Nuaire incubator (humidified). Serially diluted compounds (100 μl) were added to the culture plate 24 hr later and the cultures were further incubated in culture conditions for 96 hr. […] Fluorescence was then measured using a multimodal plate reader (Biotek Synergy Neo) at an excitation wavelength of 535 nm and emission wavelength of 590 nm to obtain relative fluorescence units. Data analysis was done by subtracting the background fluorescence (only medium blank) value from each reading and then normalizing with the vehicle control (DMSO treated cells) to obtain percent survival/proliferation. […]

A549 = test: Cell viability assay (resazurin) in A549; assay type: cell-based; conditions: Homo sapiens, 96 hr exposure
Outline: (§2)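 Cells in 10% FBS medium (DMEM; MEM for U87MG) exposed 96 h at 37 °C to serially diluted compound, then 4 h with resazurin (1 mM in medium). Fluorescence (ex 535/em 590 nm) background-subtracted, normalised to DMSO; IC50 by four-parameter variable-slope fit.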

U87MG = test: Cell viability assay (resazurin) in U87MG; assay type: cell-based; conditions: Homo sapiens, U-87 MG; 96 hr exposure
Description: as §1

MDA-MB-231 = test: Cell viability assay (resazurin) in MDA-MB-231; assay type: cell-based; conditions: Homo sapiens, 96 hr exposure, read-out: MDA_MB-231 Cell IC50
Outline: as §2

HepG2 = test: Cell viability assay (resazurin) in HepG2; assay type: cell-based; conditions: Homo sapiens, 96 hr exposure
Outline: as §2

CN(C)C(=O)c1ccc(N2CCN(C3CC4(C3)CN(C(=O)C(O)(c3ccccc3)C(F)(F)F)C4)CC2)cc1Cl (stereo not shown) [Compound 1.4, 2-chloro-N,N-dimethyl-4-(4-(2-(3,3,3-trifluoro-2-hydroxy-2-phenylpropanoyl)-2-azaspiro[3.3]heptan-6-yl)piperazin-1-yl)benzamide]
IC50 (MCF7): > 30 µM
EC50 (LXR beta): 0.45 µM
IC50 (MiaPaCa-2): > 30 µM
IC50 (A549): > 30 µM
IC50 (U87MG): > 30 µM
IC50 (MDA-MB-231): > 30 µM
IC50 (HepG2): > 30 µM
